We go through 31 molecules from patent publication US9676714B2, “Sulfonylindole derivatives and method for preparing the same” (Daewoong Pharmaceutical Co., Ltd., priority 2013, dated 2017).

In general, IC50 refers to the midpoint of a concentration-inhibition curve. Low values mean higher potency, high ones lower potency.

Counter-ions that a name gives are not always drawn.

T1 sequence (P19156 whole entry): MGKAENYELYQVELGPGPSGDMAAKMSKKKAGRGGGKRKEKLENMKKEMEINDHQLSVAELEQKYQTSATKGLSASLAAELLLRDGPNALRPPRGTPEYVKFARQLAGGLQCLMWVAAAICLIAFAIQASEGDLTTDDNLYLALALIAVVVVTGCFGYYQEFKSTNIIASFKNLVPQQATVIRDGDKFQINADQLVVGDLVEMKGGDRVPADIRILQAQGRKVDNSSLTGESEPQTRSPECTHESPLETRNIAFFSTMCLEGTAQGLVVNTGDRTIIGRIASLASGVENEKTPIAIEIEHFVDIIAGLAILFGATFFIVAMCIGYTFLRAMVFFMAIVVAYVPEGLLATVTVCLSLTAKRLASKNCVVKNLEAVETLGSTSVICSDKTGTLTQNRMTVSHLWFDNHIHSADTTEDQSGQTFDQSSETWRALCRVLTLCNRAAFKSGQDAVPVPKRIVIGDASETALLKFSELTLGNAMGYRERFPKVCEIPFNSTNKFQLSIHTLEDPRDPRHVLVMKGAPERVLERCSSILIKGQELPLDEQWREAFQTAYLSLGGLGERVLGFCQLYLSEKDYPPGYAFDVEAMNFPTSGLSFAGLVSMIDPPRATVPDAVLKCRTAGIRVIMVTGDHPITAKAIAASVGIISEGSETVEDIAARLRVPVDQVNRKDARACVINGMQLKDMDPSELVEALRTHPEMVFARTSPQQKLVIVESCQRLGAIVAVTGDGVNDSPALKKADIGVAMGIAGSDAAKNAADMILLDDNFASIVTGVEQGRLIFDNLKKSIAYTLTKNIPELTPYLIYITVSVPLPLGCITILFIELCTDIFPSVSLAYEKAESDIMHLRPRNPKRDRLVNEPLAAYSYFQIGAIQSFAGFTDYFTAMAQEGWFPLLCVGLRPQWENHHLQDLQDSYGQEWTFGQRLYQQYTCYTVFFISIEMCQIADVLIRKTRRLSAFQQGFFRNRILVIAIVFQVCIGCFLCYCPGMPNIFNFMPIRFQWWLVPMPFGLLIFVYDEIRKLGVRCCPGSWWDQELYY
T1 sequence (P18434 whole entry partner): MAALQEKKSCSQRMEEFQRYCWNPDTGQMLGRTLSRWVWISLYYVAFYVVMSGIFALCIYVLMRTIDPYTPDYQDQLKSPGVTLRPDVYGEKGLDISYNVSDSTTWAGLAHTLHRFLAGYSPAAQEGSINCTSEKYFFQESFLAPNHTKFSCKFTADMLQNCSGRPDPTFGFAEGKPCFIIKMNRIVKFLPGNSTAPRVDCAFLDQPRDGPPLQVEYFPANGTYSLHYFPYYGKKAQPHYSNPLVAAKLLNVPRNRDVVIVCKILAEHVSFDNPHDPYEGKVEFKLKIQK

This assay concerns the target T1, proton pump (H+/K+-ATPase) (Sus scrofa, UniProt P19156).
T1 construct: Gastric vesicles were prepared from hog stomach via centrifugal separation; from tissue; host or cells: hog stomach (gastric vesicles, method of Rabon et al. 1988)
The experiment in a line: Measurement of inhibitory effects on proton pump (H+/K+-ATPase) activities. It is filed as biochemical. Conditions: hog gastric vesicles, K+-specific H+/K+-ATPase activity, Tris-HCl buffer pH 7.4, 37° C. for 40 minutes, malachite green Pi readout. An outline of the steps:
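Hog gastric vesicles in 60 mmol/l Tris-HCl pH 7.4 with 0.5% DMSO were treated with compounds at room temperature; reaction was started with 10 μl of 10 mmol/l ATP stock. Released Pi was read at 570 nm, K+-specific activity taken as the ±K+ difference. IC50 from 4-parameter logistic fit.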
The molecule `CNCc1cn(S(=O)(=O)c2cccnc2)c2cc(-c3ccccc3)ccc12` [Example 243, N-methyl-1-(6-phenyl-1-(pyridin-3-ylsulfonyl)-1H-indol-3-yl)methanamine] yielded a concentration for half-maximal inhibition (IC50) of 7140 nM.

On to `CNCc1cn(S(=O)(=O)c2cccnc2)c2cc(Nc3cccnc3C(F)(F)F)ccc12` [Example 109, 3-((methylamino)methyl)-1-(pyridin-3-ylsulfonyl)-N-(2-(trifluoromethyl)pyridin-3-yl)-1H-indol-6-amine hydrochloride], for which half-maximal inhibition (IC50) was put at 1980 nM.

`CNCc1cn(S(=O)(=O)c2cccnc2)c2cc(Nc3cc(F)c(C(F)(F)F)cc3F)ccc12` [Example 78, N-(2,5-difluoro-4-(trifluoromethyl)phenyl)-3-((methylamino)methyl)-1-(pyridin-3-ylsulfonyl)-1H-indol-6-amine hydrochloride] displayed an IC50 of 2260 nM.

For the molecule `CNCc1cn(S(=O)(=O)c2cccnc2)c2cc(Cc3ccc(OC)cc3F)ccc12` [Example 277, 1-(6-(2-fluoro-4-methoxybenzyl)-1-(pyridin-3-ylsulfonyl)-1H-indol-3-yl)-N-methylmethanamine hydrochloride], it took 760 nM to reach half-maximal inhibition (IC50).

As for `CNCc1cn(S(=O)(=O)c2cccnc2)c2cc(Cc3ccc(OC)nc3Cl)ccc12` [Example 291, 1-(6-((2-chloro-6-methoxypyridin-3-yl)methyl)-1-(pyridin-3-ylsulfonyl)-1H-indol-3-yl)-N-methylmethanamine hydrochloride], the half-maximal inhibitory concentration (IC50) was 660 nM.

`CNCc1cn(S(=O)(=O)c2cccnc2)c2cc(-c3cccnc3C(F)(F)F)ccc12` [Example 254, N-methyl-1-(1-(pyridin-3-ylsulfonyl)-6-(2-(trifluoromethyl)pyridin-3-yl)-1H-indol-3-yl)methanamine hydrochloride]: the half-inhibitory concentration (IC50) came out at 9150 nM.

`CNCc1cn(S(=O)(=O)c2cccc(OC(F)F)c2)c2cc(Nc3ccc(C)cc3Cl)ccc12` [Example 175, N-(2-chloro-4-methylphenyl)-1-((3-(difluoromethoxy)phenyl)sulfonyl)-3-((methylamino)methyl)-1H-indol-6-amine hydrochloride] showed a concentration for half-maximal inhibition (IC50) of 150 nM.

In the case of `CNCc1cn(S(=O)(=O)c2cccnc2)c2cc(Nc3ccc(F)c(F)c3F)ccc12` [Example 67, 3-((methylamino)methyl)-1-(pyridin-3-ylsulfonyl)-N-(2,3,4-trifluorophenyl)-1H-indol-6-amine hydrochloride], the IC50 is 380 nM.

Molecule `CNCc1cn(S(=O)(=O)c2cccnc2)c2cc(Nc3ccc(OC)cc3C)ccc12` [Example 48, N-(4-methoxy-2-methylphenyl)-3-((methylamino)methyl)-1-(pyridin-3-ylsulfonyl)-1H-indol-6-amine hydrochloride] came in with a half-maximal inhibitory concentration (IC50) of 260 nM.

`CNCc1cn(S(=O)(=O)c2cccnc2)c2cc(Nc3ccc(F)cc3)ccc12` [Example 9, N-(4-fluorophenyl)-3-((methylamino)methyl)-1-(pyridin-3-ylsulfonyl)-1H-indol-6-amine hydrochloride] came in with an IC50 of 1050 nM.

As for `Cc1ccc(Nc2ccc3c(C(=O)N(C)C)cn(S(=O)(=O)c4cccnc4)c3c2)c(Cl)c1` [Example 323, 6-((2-chloro-4-methylphenyl)amino)-N,N-dimethyl-1-(pyridin-3-ylsulfonyl)-1H-indol-3-carboxamide], the IC50 amounted to 20000 nM.

Turning to `CNCc1cn(S(=O)(=O)c2cccnc2)c2cc(Oc3cc(Cl)ncn3)ccc12` [Example 314, 1-(6-((6-chloropyrimidin-4-yl)oxy)-1-(pyridin-3-ylsulfonyl)-1H-indol-3-yl)-N-methylmethanamine hydrochloride], the IC50 was found to be 19400 nM.

On to `CNCc1cn(S(=O)(=O)c2cccnc2)c2cc(Nc3cc(C)ccc3F)ccc12` [Example 59, N-(2-fluoro-5-methylphenyl)-3-((methylamino)methyl)-1-(pyridin-3-ylsulfonyl)-1H-indol-6-amine hydrochloride], for which the concentration for half-maximal inhibition (IC50) came out at 350 nM.

As for `CCOc1ccc(Nc2ccc3c(CNC)cn(S(=O)(=O)c4cccnc4)c3c2)c(F)c1F` [Example 71, N-(4-ethoxy-2,3-difluorophenyl)-3-((methylamino)methyl)-1-(pyridin-3-ylsulfonyl)-1H-indol-6-amine hydrochloride], the 50% inhibitory concentration (IC50) is 430 nM.

In turn, `CNCc1cn(S(=O)(=O)c2cccc(Cl)c2)c2cc(Nc3ccc(OC(F)(F)F)cc3F)ccc12` [Example 155, 1-((3-chlorophenyl)sulfonyl)-N-(2-fluoro-4-(trifluoromethoxy)phenyl)-3-((methylamino)methyl)-1H-indol-6-amine hydrochloride] returned an IC50 of 440 nM.

In the case of `CNCc1cn(S(=O)(=O)c2cccc(F)c2)c2cc(Nc3ccc(Cl)cc3C)cnc12` [Example 341, N-(4-chloro-2-methylphenyl)-1-((3-fluorophenyl)sulfonyl)-3-((methylamino)methyl)-1H-pyrrolo[3,2-b]pyridin-6-amine hydrochloride], half-maximal inhibition (IC50) was put at 380 nM.

In turn, `CNCc1cn(S(=O)(=O)c2cccc(OC(F)F)c2)c2cc(Nc3ccc(C)c(F)c3F)ccc12` [Example 180, N-(2,3-difluoro-4-methylphenyl)-1-((3-(difluoromethoxy)phenyl)sulfonyl)-3-((methylamino)methyl)-1H-indol-6-amine hydrochloride] displayed a half-maximal inhibitory concentration (IC50) of 270 nM.

As to `CNCc1cn(S(=O)(=O)c2cncc(Br)c2)c2cc(Nc3ccc(C)cc3F)ccc12` [Example 241, 1-((5-bromopyridin-3-yl)sulfonyl)-N-(2-fluoro-4-methylphenyl)-3-((methylamino)methyl)-1H-indol-6-amine hydrochloride], the 50% inhibitory concentration (IC50) came out at 2190 nM.

With `CNCc1cn(S(=O)(=O)c2cccnc2)c2cc(Nc3ccc(C)cc3C)ccc12` [Example 21, N-(2,4-dimethylphenyl)-3-((methylamino)methyl)-1-(pyridin-3-ylsulfonyl)-1H-indol-6-amine hydrochloride], the half-maximal inhibitory concentration (IC50) amounted to 210 nM.

Molecule `CNCc1cn(S(=O)(=O)c2cccnc2)c2cc(Oc3ncc(F)cn3)ccc12` [Example 313, 1-(6-((5-fluoropyrimidin-2-yl)oxy)-1-(pyridin-3-ylsulfonyl)-1H-indol-3-yl)-N-methylmethanamine hydrochloride] returned a half-maximal inhibitory concentration (IC50) of 25000 nM.

As to `CNCc1cn(S(=O)(=O)c2cccc(C(F)(F)F)c2)c2cc(Nc3ccc(C(F)(F)F)cc3Cl)ccc12` [Example 187, N-(2-chloro-4-(trifluoromethyl)phenyl)-3-((methylamino)methyl)-1-((3-(trifluoromethyl)phenyl)sulfonyl)-1H-indol-6-amine hydrochloride], the concentration for half-maximal inhibition (IC50) was determined as 980 nM.

For `CNCc1cn(S(=O)(=O)c2cccc(OC(F)F)c2)c2cc(-c3cnc(F)c(C)c3)ccc12` [Example 263, 1-(1-((3-(difluoromethoxy)phenyl)sulfonyl)-6-(6-fluoro-5-methylpyridin-3-yl)-1H-indol-3-yl)-N-methylmethanamine hydrochloride], the 50% inhibitory concentration (IC50) is 60000 nM.

Take `CNCc1cn(S(=O)(=O)c2cccnc2)c2cc(Nc3ccc(F)cc3F)ccc12` [Example 24, N-(2,4-difluorophenyl)-3-((methylamino)methyl)-1-(pyridin-3-ylsulfonyl)-1H-indol-6-amine hydrochloride]: the IC50 was found to be 560 nM.

In turn, `CNCc1cn(S(=O)(=O)c2cccc(OC)c2)c2cc(Nc3ccc(OC(F)(F)F)cc3Cl)ccc12` [Example 169, N-(2-chloro-4-(trifluoromethoxy)phenyl)-1-((3-methoxyphenyl)sulfonyl)-3-((methylamino)methyl)-1H-indol-6-amine hydrochloride] displayed a concentration for half-maximal inhibition (IC50) of 80 nM.

On to `CNCc1cn(S(=O)(=O)c2cccnc2)c2cc(Nc3ccc(C(F)(F)F)nc3C)ccc12` [Example 124, N-(2-methyl-6-(trifluoromethyl)pyridin-3-yl)-3-((methylamino)methyl)-1-(pyridin-3-ylsulfonyl)-1H-indol-6-amine hydrochloride], for which the IC50 was determined as 580 nM.

Take `CNCc1cn(S(=O)(=O)c2cccnc2)c2cc(-c3ccc(OC)cc3)ccc12` [Example 251, 1-(6-(4-methoxyphenyl)-1-(pyridin-3-ylsulfonyl)-1H-indol-3-yl)-N-methylmethanamine hydrochloride]: it took 2600 nM to reach half-maximal inhibition (IC50).

On to `CNCc1cn(S(=O)(=O)c2cc(C)ccc2C)c2cc(Nc3ccc(C)cc3F)ccc12` [Example 236, 1-((2,5-dimethylphenyl)sulfonyl)-N-(2-fluoro-4-methylphenyl)-3-((methylamino)methyl)-1H-indol-6-amine hydrochloride], for which half-maximal inhibition (IC50) required 2040 nM.

With `CNCc1cn(S(=O)(=O)c2cccc(Cl)c2)c2cc(Nc3ccc(C(F)(F)F)nc3Cl)ccc12` [Example 161, N-(2-chloro-6-(trifluoromethyl)pyridin-3-yl)-1-((3-chlorophenyl)sulfonyl)-3-((methylamino)methyl)-1H-indol-6-amine hydrochloride], the IC50 came to 460 nM.

In turn, `CNCc1cn(S(=O)(=O)c2cccc(F)c2)c2cc(Nc3ccc(OC(F)(F)F)cc3C)ccc12` [Example 140, 1-((3-fluorophenyl)sulfonyl)-N-(2-methyl-4-(trifluoromethoxy)phenyl)-3-((methylamino)methyl)-1H-indol-6-amine hydrochloride] returned a half-inhibitory concentration (IC50) of 190 nM.

`CNCc1cn(S(=O)(=O)c2cccnc2)c2cc(Nc3cc(Cl)c(Cl)cc3Cl)ccc12` [Example 76, 3-((methylamino)methyl)-1-(pyridin-3-ylsulfonyl)-N-(2,4,5-trichlorophenyl)-1H-indol-6-amine hydrochloride] showed an IC50 of 350 nM.

In the case of `CNCc1cn(S(=O)(=O)c2cccnc2)c2cc(Nc3ccc(C)cc3)ccc12` [Example 10, 3-((methylamino)methyl)-1-(pyridin-3-ylsulfonyl)-N-(p-tolyl)-1H-indol-6-amine hydrochloride], inhibition was half-maximal at 200 nM (IC50).
